Values quoted from earlier work, collected in US20080194494A1, “4-Biarylyl-1-Phenylazetidin-2-One Glucuronide Derivatives for Hypercholesterolemia” (MICROBIA, INC., priority 2005, published 2008).

How the values were obtained:
[1] = in vivo
[2] = in humans

For O=C1[C@H](CC[C@H](O)c2ccc(F)cc2)[C@@H](c2ccc(O)cc2)N1c1ccc(F)cc1 [ezetimibe, (3R,4S)-1-(4-fluorophenyl)-3-[(3S)-3-(4-fluorophenyl)-3-hydroxypropyl]-4-(4-hydroxyphenyl)azetidin-2-one], the “inhibition of the absorption of taurocholic acid” value [1] is listed as “does not inhibit” and the “effect on fat-soluble vitamin absorption” value [2] is listed as “does not appear to affect”.
